{"source": "patent US11253557B2", "about": "“Therapeutic bacteriophage compositions” (priority 2015, dated 2022)", "system": "S. aureus strain UNT144-3", "test": "S. aureus neutropenic lung model (murine pneumonia model)", "assay_type": "in vivo, Staphylococcus aureus", "settings": "neutropenic mice, 100 mg/kg SC at 2 and 6 hrs post-infection, CFU assessed 24 hr", "description": "In a non-limiting example, the sensitivity of two S. aureus clinical isolates, UNT109-3 (NRS234, native valve endocarditis) and UNT144-3, that have been previously utilized in animal models of infection, was evaluated vs. the individual phage and the 4-phage cocktail. […] The virulence of the two strains was then evaluated in the murine lung infection model. Female Hsd:ICR(CD-1) mice (Harlan Laboratories, Houston, Tex.) were administered 150 and 100 mg/kg cyclophosphamide on day −4 and day −1 prior to infection to render them neutropenic. Groups of 5 mice were then anaesthetized by intraperitoneal (IP) injection of 0.15 mL of a mixture of ketamine HCl (100 mg/kg body weight) plus xylazine (10 mg/kg body weight). Once anaesthetized, mice were infected intranasally by placing drops on the external nares and allowing inhalation of the 50 μl inoculum. Twenty-four hours after infection, mice were euthanized by CO2 inhalation and lungs processed for bacterial titers. Bacterial counts were enumerated on Brain Heart Infusion agar (Difco™ Laboratories)+0.5% activated charcoal (Sigma-Aldrich) plates for ease of recovering and detecting S. aureus (Barr, J. G., et al., J Clin. Pathol. (1987) 40:372-376). […]\nThree phage cocktail treatment groups were evaluated for efficacy: 2×10^10 PFU/mL per phage, 2×10^9 PFU/mL per phage, and 2×10^8 PFU/mL per phage. […]", "note": "“And” between values parts separate entries of the source, which are not always exact repeats. Equal entries are not always repeated.", "data": [{"smiles": "CN[C@H](CC(C)C)C(=O)N[C@H]1C(=O)N[C@@H](CC(N)=O)C(=O)N[C@H]2C(=O)N[C@H]3C(=O)N[C@H](C(=O)N[C@H](C(=O)O)c4cc(O)cc(O)c4-c4cc3ccc4O)[C@H](O)c3ccc(c(Cl)c3)Oc3cc2cc(c3O[C@@H]2O[C@H](CO)[C@@H](O)[C@H](O)[C@H]2O[C@H]2C[C@](C)(N)[C@H](O)[C@H](C)O2)Oc2ccc(cc2Cl)[C@H]1O", "note": "[Vancomycin]", "values": [{"measurement": "Mean ± SD logo CFU/Lung Pair", "result": "5.55 log10 CFU/lung pair and 5.55 ± 1.1 log10 CFU/lung pair"}]}]}
